Literature values in patent publication US20210299075A1 (priority 2020, published 2021).

Tests used:
[1] = test system: adenovirus; conditions: Poli et al.; the only naked virus tested
[2] = test system: herpes simplex virus, rhabdovirus, and other enveloped viruses; conditions: Poli et al.
[3] = Hendley et al.
[4] = frequent application

| Molecule | antiviral activity against adenovirus [1] | antiviral activity against enveloped viruses [2] | antiviral activity [3] | irritation of the skin [4] |
| --- | --- | --- | --- | --- |
| CC(=O)C(=O)O [pyruvic acid] | not effective | effective |  |  |
| CCO [ethyl alcohol] |  |  | performed poorly |  |
| II [iodine] |  |  | all except iodine performed poorly | too irritating to the skin |
| O=C(O)CCC(=O)O [succinic acid] | not effective | effective |  |  |
| benzalkonium chloride [benzalkonium chloride (BAK)] |  |  | performed poorly |  |
| O=C(O)CC(O)(CC(=O)O)C(=O)O [citric acid] | not effective | effective |  |  |
| O=C(O)CC(O)C(=O)O (stereo not drawn) [malic acid] | not effective | effective |  |  |
